The record followed here is patent publication US11897867B2, “6-phenyl-4,5-dihydropyridazin-3(2H)-one derivatives as PDE3A and PDE3B inhibitors for treating cancer” (Bayer Aktiengesellschaft, priority 2017, dated 2024).

Assay [1] deals with HeLa cells (cervical cancer). The assay can be described thus: Cell proliferation measurement (Cell Titer Glo), HeLa. The class given is cell-based. Conditions: Homo sapiens, 72 h treatment, read-out: Anti-proliferation IC50 HeLa (Cervical cancer). As to the method: (§1) The antiproliferative activity of the compounds of the general formula (I) was examined in vitro in human cancer cells. For this purpose, 1000 cells (or 500 HeLa cells) were plated in 384-well plates with appropriate growth medium and incubated at 37° C. overnight. After 24 h, the cells on the test plate were treated with the compounds of the general formula (I) as and incubated at 37° C. for 72 h. The compounds were added to the cells by means of an HP D300 digital dispenser in a 10 (or more)-step dilution series. As control, the cells were treated with vehicle (DMSO at 0.3% final concentration). After 72 h, the cells were treated with 20 μl/well of 50% CTG solution in PBS (Promega Cell Titer Glo (catalogue #G755B and G756B)) and incubated at room temperature for 10 min, and luminescence was measured by means of a VICTOR V (Perkin Elmer), in order to determine cell viability at the end of treatment. The percentage effect on cell growth and the IC50 derived therefrom were determined for each test substance using the values from untreated wells (=percent viability). The IC50 values were calculated using a 4-parameter fit.

The target in assay [2] is T1, human full length PDE3B (Homo sapiens, UniProt Q13370).
T1 construct: Sf9 cells overexpressing human full length PDE3B; purchased SB Drug Discovery, UK; host or cells: Sf9 cells (cell extract)
Kind of assay: PDE3B enzyme inhibition (3H-cAMP Scintillation Proximity Assay). It is filed as biochemical. Conditions: PDE3B cell extract from Sf9 cells, 60 min room temperature; read-out: Target IC50 PDE3B IC50. As to the method:
The commercially available 3H-cAMP Scintillation Proximity Assay (SPA, Perkin Elmer) system was used for enzyme inhibition studies. For the determination of the in vitro effect of test substances on the PDE3B reactions 2 μl of the respective test compound solution in DMSO (serial dilutions) were placed in wells of microtiter plates (Isoplate-96/200W; Perkin Elmer). 50 μl of a dilution of PDE3B cell extract from Sf9 cells overexpressing human full length PDE3B (SB Drug Discovery, UK) in buffer A (50 mM Tris/HCl pH 7.5, 8.3 mM MgCl2, 1.7 mM EDTA, 0.2% BSA) was added. The dilution of the PDE3B cell extract was chosen such that the reaction kinetics was linear and less than 70% of the substrate was consumed (typical dilution 1:6000). The reaction was started by addition of 50 μl (0.025 μCi) of 1:2000 in buffer A w/o BSA diluted substrate [8-3H] adenosine 3′,5′-cyclic phosphate (1 μCi/μl; Perkin Elmer). After incubation at room temperature for 60 min, the reaction was stopped by addition of 25 μl of a suspension containing 18 mg/ml yttrium scintillation proximity beads (Perkin Elmer) in water. The microtiter plates were sealed and measured in a Microbeta scintillation counter (PerkinElmer Wallac). IC50 values were determined from sigmoidal curves by plotting percentage PDE3B activity vs log compound concentration.
In general terms: In a scintillation proximity assay essentially only radioactivity close to the scintillant gives light.

For assay [3], the system named is SK-MEL-3 (melanoma). Kind of assay: Cell proliferation measurement (Cell Titer Glo), SK-MEL-3. It is filed as cell-based. Conditions: Homo sapiens, SK-MEL3, SK-MEL-3 cells, 72 h treatment, read-out: Anti-proliferation IC50 SK-MEL-3 (melanoma). As to the method:
as §1
Background: In ATP-based viability assays light output follows the ATP content of the culture.

Assay [4] concerns the target T2, human full length PDE3A (Homo sapiens, UniProt Q14432).
T2 construct: Sf9 cells overexpressing human full length PDE3A; purchased SB Drug Discovery, UK; host or cells: Sf9 cells (cell extract)
The assay can be described thus: PDE3A enzyme inhibition (3H-cAMP Scintillation Proximity Assay). It is filed as biochemical. Conditions: PDE3A cell extract from Sf9 cells, 60 min room temperature; read-out: Target IC50 PDE3A IC50. As to the method: The commercially available 3H-cAMP Scintillation Proximity Assay (SPA, Perkin Elmer) system was used for enzyme inhibition studies. For the determination of the in vitro effect of test substances on the PDE3A reactions 2 μl of the respective test compound solution in DMSO (serial dilutions) were is placed in wells of microtiter plates (Isoplate-96/200W; Perkin Elmer). 50 μl of a dilution of PDE3A cell extract from Sf9 cells overexpressing human full length PDE3A (SB Drug Discovery, UK) in buffer A (50 mM Tris/HCl pH 7.5, 8.3 mM MgCl2, 1.7 mM EDTA, 0.2% BSA) was added. The dilution of the PDE3A cell extract was chosen such that the reaction kinetics was linear and less than 70% of the substrate was consumed (typical dilution 1:5000). The reaction was started by addition of 50 μl (0.025 μCi) of 1:2000 in buffer A w/o BSA diluted substrate [8-3H] adenosine 3′,5′-cyclic phosphate (1 μCi/μl; Perkin Elmer). After incubation at room temperature for 60 min, the reaction was stopped by addition of 25 μl of a suspension containing 18 mg/ml yttrium scintillation proximity beads (Perkin Elmer) in water. The microtiter plates were sealed and measured in a Microbeta scintillation counter (PerkinElmer Wallac). IC50 values were determined from sigmoidal curves by plotting percentage PDE3A activity vs log compound concentration.

pIC50: −log10 of the molar value.

T1 sequence (Q13370 whole entry): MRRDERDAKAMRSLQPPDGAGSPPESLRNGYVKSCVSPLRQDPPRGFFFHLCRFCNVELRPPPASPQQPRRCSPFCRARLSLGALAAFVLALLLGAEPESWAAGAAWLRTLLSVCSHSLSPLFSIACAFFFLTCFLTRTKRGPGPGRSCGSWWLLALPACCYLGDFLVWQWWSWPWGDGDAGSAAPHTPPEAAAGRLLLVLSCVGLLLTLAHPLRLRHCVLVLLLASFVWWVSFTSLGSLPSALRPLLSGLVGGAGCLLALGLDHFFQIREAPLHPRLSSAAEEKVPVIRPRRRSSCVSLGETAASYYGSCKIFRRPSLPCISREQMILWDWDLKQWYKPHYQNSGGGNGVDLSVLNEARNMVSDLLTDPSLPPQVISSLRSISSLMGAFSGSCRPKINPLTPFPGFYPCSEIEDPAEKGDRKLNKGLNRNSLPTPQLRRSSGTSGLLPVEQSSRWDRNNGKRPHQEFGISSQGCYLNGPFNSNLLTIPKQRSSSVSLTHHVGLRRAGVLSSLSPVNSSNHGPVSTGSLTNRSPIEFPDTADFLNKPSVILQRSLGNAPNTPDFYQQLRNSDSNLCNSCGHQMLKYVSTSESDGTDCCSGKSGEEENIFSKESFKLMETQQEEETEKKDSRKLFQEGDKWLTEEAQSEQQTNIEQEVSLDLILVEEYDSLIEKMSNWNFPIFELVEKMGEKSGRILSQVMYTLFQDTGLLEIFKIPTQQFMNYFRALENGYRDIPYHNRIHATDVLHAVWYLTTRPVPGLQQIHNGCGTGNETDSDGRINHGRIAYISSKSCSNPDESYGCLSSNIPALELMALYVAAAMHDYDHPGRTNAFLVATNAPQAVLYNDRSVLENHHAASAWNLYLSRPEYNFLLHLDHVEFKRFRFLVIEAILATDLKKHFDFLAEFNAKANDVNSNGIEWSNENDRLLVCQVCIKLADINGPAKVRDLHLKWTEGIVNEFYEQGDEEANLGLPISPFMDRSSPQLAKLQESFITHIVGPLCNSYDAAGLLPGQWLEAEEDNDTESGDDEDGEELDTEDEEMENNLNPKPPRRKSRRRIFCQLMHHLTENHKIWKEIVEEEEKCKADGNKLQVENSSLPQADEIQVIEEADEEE
T2 sequence (Q14432 whole entry): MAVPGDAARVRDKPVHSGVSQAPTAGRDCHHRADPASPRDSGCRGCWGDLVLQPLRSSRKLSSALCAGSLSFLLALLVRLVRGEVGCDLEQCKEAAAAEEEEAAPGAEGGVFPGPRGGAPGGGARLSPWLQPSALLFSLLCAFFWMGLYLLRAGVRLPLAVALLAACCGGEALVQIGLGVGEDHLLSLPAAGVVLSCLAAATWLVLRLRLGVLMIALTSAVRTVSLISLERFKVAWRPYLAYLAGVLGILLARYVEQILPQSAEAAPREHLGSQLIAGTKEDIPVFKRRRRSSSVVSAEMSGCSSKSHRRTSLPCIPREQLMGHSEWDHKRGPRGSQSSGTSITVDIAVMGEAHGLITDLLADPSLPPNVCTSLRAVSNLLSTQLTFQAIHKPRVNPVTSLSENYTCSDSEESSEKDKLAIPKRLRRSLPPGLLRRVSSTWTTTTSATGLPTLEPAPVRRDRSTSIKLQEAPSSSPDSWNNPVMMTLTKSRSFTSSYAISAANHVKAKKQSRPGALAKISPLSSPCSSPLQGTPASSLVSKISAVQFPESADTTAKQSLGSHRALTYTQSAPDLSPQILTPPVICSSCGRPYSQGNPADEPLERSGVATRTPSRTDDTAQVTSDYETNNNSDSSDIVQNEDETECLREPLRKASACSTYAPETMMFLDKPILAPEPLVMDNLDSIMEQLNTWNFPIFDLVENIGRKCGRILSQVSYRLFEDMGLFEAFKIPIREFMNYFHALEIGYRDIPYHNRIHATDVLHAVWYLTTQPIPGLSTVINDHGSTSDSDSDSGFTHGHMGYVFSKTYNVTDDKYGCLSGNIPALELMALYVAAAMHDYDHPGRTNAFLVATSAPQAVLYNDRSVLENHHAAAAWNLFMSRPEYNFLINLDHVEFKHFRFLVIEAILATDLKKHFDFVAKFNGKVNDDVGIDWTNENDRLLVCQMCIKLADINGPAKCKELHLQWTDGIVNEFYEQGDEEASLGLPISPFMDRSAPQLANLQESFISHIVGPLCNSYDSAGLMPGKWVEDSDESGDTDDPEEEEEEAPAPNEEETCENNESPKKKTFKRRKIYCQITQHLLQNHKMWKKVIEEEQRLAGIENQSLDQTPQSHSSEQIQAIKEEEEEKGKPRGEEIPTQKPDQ

With `N#Cc1cc(C2=NNC(=O)CC2)ccc1N1CCOCC1` [Example 15, 2-(Morpholin-4-yl)-5-(6-oxo-1,4,5,6-tetrahydropyridazin-3-yl)benzonitrile], the pIC50 in assay [1] is 7.35; in assay [2], 7.11; in assay [3], 7.16; in assay [4] it was 6.96.
On to `O=C1CCC(c2cc(F)c(N3CCCCC3)c(F)c2)=NN1` [Example 16, 6-[3,5-Difluoro-4-(piperidin-1-yl)phenyl]-4,5-dihydropyridazin-3(2H)-one], for which the pIC50 in assay [1] is 8.31; in assay [2], 6.89; in assay [3], 8.01; in assay [4], 6.39.
For the compound `CC1C2CC2CN1c1c(F)cc(C2=NNC(=O)CC2)cc1F` (centres unmarked) [Example 17, 6-{3,5-Difluoro-4-[2-methyl-3-azabicyclo[3.1.0]hex-3-yl]phenyl}-4,5-dihydropyridazin-3(2H)-one], the pIC50 in assay [1] is 8.89; in assay [2], 7.05; in assay [3] it was 8.52; in assay [4], 6.70.
For the compound `CCNc1ccc(C2=NNC(=O)CC2)cc1C(F)(F)F` [Example 18, 6-[4-(Ethylamino)-3-(trifluoromethyl)phenyl]-4,5-dihydropyridazin-3(2H)-one], the pIC50 was 8.27 in assay [1], 7.14 in assay [2], 7.98 in assay [3] and 7.18 in assay [4].
Regarding `O=C1CCC(c2ccc(N3CC(F)(F)C3)c(C(F)(F)F)c2)=NN1` [Example 19, 6-[4-(3,3-Difluoroazetidin-1-yl)-3-(trifluoromethyl)phenyl]-4,5-dihydropyridazin-3(2H)-one], the pIC50 in assay [1] is 8.24; in assay [2] it was 6.68; in assay [3], 7.98; in assay [4], 6.68.
For `CC1CCCN1c1ccc(C2=NNC(=O)CC2)cc1C(F)(F)F` (centres unmarked) [Example 20, 6-{4-[2-Methylpyrrolidin-1-yl]-3-(trifluoromethyl)phenyl}-4,5-dihydropyridazin-3(2H)-one], the pIC50 in assay [1] was 7.47; in assay [2], 6.80; in assay [3] it was 7.32; in assay [4], 6.66.
Turning to `O=C1CCC(c2ccc(N3CC4CC(C3)C4(F)F)c(C(F)(F)F)c2)=NN1` [Example 21, 6-[4-(6,6-Difluoro-3-azabicyclo[3.1.1]hept-3-yl)-3-(trifluoromethyl)phenyl]-4,5-dihydropyridazin-3(2H)-one], the pIC50 in assay [1] was 8.54; in assay [2], 7.30; in assay [3] it was 8.24; in assay [4], 7.09.
`CNc1ccc(C2=NNC(=O)CC2)cc1C(F)(F)F` [Example 23, 6-[4-(Methylamino)-3-(trifluoromethyl)phenyl]-4,5-dihydropyridazin-3(2H)-one]: the pIC50 in assay [1] was 7.24; in assay [2], 6.33; in assay [3], 7.17; in assay [4] it was 6.35.
For `O=C1CCC(c2ccc(N3CC(O)C3)c(C(F)(F)F)c2)=NN1` [Example 24, 6-[4-(3-Hydroxyazetidin-1-yl)-3-(trifluoromethyl)phenyl]-4,5-dihydropyridazin-3(2H)-one], the pIC50 was 8.00 in assay [1], 6.52 in assay [2], 7.82 in assay [3] and 6.46 in assay [4].
The matching figures for `O=C1CCC(c2ccc(N3CCOCC3)c(F)c2)=NN1` [Example 25, 6-[3-Fluoro-4-(morpholin-4-yl)phenyl]-4,5-dihydropyridazin-3(2H)-one]: 8.21, 6.80, 7.70 and 6.68.
With `Cc1cc(F)ccc1-c1ccc(C2=NNC(=O)CC2)cc1` [Example 26, 6-(4′-Fluoro-2′-methylbiphenyl-4-yl)-4,5-dihydropyridazin-3(2H)-one], the pIC50 in assay [1] was 8.69; in assay [2] it was 7.05; in assay [3] it was 8.44; in assay [4], 7.03.
The matching figures for `CC(C)=Cc1ccc(C2=NNC(=O)CC2)cc1F` [Example 27, 6-[3-Fluoro-4-(2-methylprop-1-en-1-yl)phenyl]-4,5-dihydropyridazin-3(2H)-one]: 8.47, 6.85, 8.21 and 6.89.
For `Nc1cc(-c2ccc(C3=NNC(=O)CC3)cc2F)ccn1` [Example 28, 6-[4-(2-aminopyridin-4-yl)-3-fluorophenyl]-4,5-dihydropyridazin-3(2H)-one], the pIC50 in assay [1] is 7.22; in assay [2], 7.05; in assay [3], less than 7.00; in assay [4], 7.00.
`O=C1CCC(c2ccc(-c3cncc(C(F)(F)F)c3)c(F)c2)=NN1` [Example 29, 6-{3-fluoro-4-[5-(trifluoromethyl)pyridin-3-yl]phenyl}-4,5-dihydropyridazin-3(2H)-one]: the pIC50 in assay [1] is 7.06; in assay [2] it was 6.96; in assay [3] it was less than 7.00; in assay [4], 6.80.
Regarding `O=C1CCC(c2ccc(-c3ccncc3)c(F)c2)=NN1` [Example 30, 6-[3-fluoro-4-(pyridin-4-yl)phenyl]-4,5-dihydropyridazin-3(2H)-one], the pIC50 in assay [1] was 8.02; in assay [2] it was 7.51; in assay [3], 7.85; in assay [4] it was 7.48.
Regarding `Cc1ncc(-c2ccc(C3=NNC(=O)CC3)cc2F)cn1` [Example 31, 6-[3-fluoro-4-(2-methylpyrimidin-5-yl)phenyl]-4,5-dihydropyridazin-3(2H)-one], the pIC50 in assay [1] is 7.46; in assay [2], 7.03; in assay [3] it was 7.33; in assay [4], 6.80.
The matching figures for `COc1cc(-c2ccc(C3=NNC(=O)CC3)cc2F)ccn1` [Example 32, 6-[3-fluoro-4-(2-methoxypyridin-4-yl)phenyl]-4,5-dihydropyridazin-3(2H)-one]: 7.22, 7.44, 7.19 and 7.19.
The matching figures for `Cc1ncccc1-c1ccc(C2=NNC(=O)CC2)cc1F` [Example 33, 6-[3-fluoro-4-(2-methylpyridin-3-yl)phenyl]-4,5-dihydropyridazin-3(2H)-one]: 7.84, 7.17, 7.61 and 7.18.
Take `Cc1ccc(-c2ccc(C3=NNC(=O)CC3)cc2F)cn1` [Example 34, 6-[3-fluoro-4-(6-methylpyridin-3-yl)phenyl]-4,5-dihydropyridazin-3(2H)-one]: the pIC50 in assay [1] is 8.14; in assay [2], 7.30; in assay [3] it was 8.01; in assay [4], 7.24.
The matching figures for `Cc1ccc(-c2ccc(C3=NNC(=O)CC3)cc2F)cc1C` [Example 35, 6-(2-fluoro-3′,4′-dimethyl[1,1′-biphenyl]-4-yl)-4,5-dihydropyridazin-3(2H)-one]: 7.20, 6.16, less than 7.00 and 6.09.
